Reference: patent publication US9580429B2, “Pyrrolo[3,2-D]pyrimidin-4-one derivatives and their use in therapy” (ASTRAZENECA AB, priority 2004, dated 2017)

Each molecule was assayed against T1, human MPO (Homo sapiens, UniProt P05164) (assay: MPO inhibition screen (TMB oxidation, absorbance)). Details: in the presence of tyrosine (final 8 μM); human MPO 2.5 nM; H2O2 100 μM.
T1 sequence (P05164 49-745): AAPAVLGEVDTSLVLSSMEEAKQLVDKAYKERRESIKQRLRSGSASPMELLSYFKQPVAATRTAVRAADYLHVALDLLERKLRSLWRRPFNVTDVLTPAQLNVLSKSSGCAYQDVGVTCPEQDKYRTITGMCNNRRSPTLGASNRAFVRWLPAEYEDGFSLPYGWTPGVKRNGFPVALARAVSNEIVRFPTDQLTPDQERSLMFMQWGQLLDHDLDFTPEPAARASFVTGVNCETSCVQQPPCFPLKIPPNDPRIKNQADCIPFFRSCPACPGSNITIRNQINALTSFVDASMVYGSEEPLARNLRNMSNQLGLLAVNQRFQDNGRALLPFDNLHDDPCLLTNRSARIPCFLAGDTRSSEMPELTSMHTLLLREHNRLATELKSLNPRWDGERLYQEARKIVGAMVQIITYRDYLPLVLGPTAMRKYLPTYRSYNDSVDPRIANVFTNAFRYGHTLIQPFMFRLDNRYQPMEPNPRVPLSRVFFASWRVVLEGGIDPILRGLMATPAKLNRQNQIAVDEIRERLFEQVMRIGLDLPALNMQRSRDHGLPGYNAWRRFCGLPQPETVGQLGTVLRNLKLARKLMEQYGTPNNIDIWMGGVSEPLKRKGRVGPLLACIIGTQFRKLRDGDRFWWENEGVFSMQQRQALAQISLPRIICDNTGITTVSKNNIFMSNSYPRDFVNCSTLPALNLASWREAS
Type: biochemical
Experimental: Methods for the determination of MPO inhibitory activity are disclosed in patent application WO 02/090575. The pharmacological activity of compounds according to the invention was tested in the following screen in which the compounds were either tested alone or in the presence of added tyrosine:
Assay buffer: 20 mM sodium/potassium phosphate buffer pH 6.5 containing 10 mM taurine and 100 mM NaCl.
Developing reagent: 2 mM 3,3′,5,5′-tetramethylbenzidine (TMB), 200 μM KI, 200 mM acetate buffer pH 5.4 with 20% DMF.
To 10 μl of diluted compounds in assay buffer, 40 μl of human MPO (final concentration 2.5 nM), with or without 20 μM tyrosine (final concentration, if present, 8 μM), was added and the mixture was incubated for 10 minutes at ambient temperature. Then 50 μl of H2O2 (final concentration 100 μM), or assay buffer alone as a control, were added. After incubation for 10 minutes at ambient temperature, the reaction was stopped by adding 10 μl 0.2 mg/ml of catalase (final concentration 18 μg/ml). The reaction mixture was left for an additional 5 minutes before 100 μl of TMB developing reagent was added. The amount of oxidised 3,3′,5,5′-tetramethylbenzidine formed was then measured after about 5 minutes using absorbance spectroscopy at about […]. IC50 values were then determined using standard procedures.

| IC50 | Compound |
| --- | --- |
| 220 nM | CCCOc1cccc(Cn2c(=S)[nH]c(=O)c3[nH]ccc32)c1OCCOC [Example 5, 1-[2-(2-Methoxyethoxy)-3-propoxybenzyl]-2-thioxo-1,2,3,5-tetrahydro-pyrrolo[3,2-d]pyrimidin-4-one] |
| 1100 nM | CCOC(C)(C)Cn1c(=S)[nH]c(=O)c2[nH]ccc21 [Example 11, 1-(2-Ethoxy-2-methylpropyl)-2-thioxo-1,2,3,5-tetrahydro-pyrrolo[3,2-d]pyrimidin-4-one] |
| 260 nM | CC(C)Cn1c(=S)[nH]c(=O)c2[nH]ccc21 [Example 2, 1-Isobutyl-2-thioxo-1,2,3,5-tetrahydro-pyrrolo[3,2-d]pyrimidin-4-one] |
